Experimental data: patent US20240408169A1 (priority 2023, published 2024)
*1 amine or outer side, *2 acyl side, *3 side chain or, on linkers, in order; H or OH if unused. Where a SMILES comes first, the peptide text is derived from it. Bridges are numbered along the chain shown (N, C = ends). [ ]: non-standard residue; d: D form. The star is where a group is joined. X122 = CN([C@@H](Cc1cc(Cl)ccc1C1=CCN(C(=O)C(C)(C)C)CC1)C(=O)[*:2])[*:1]; NMehhhLys(Me) = CN([C@@H](CCCCCCCN(C)[*:3])C(=O)[*:2])[*:1]; NMe3Pal(2-OiPr,5-Cl) = CN[C@@H](Cc1cc(Cl)cnc1OC(C)C)C(=O)O; NMe3Pal(2-OcPr,5-F) = CN[C@@H](Cc1cc(F)cnc1OC1CC1)C(=O)O; NMe(hhhLys) = CN([C@@H](CCCCCCCN[*:3])C(=O)[*:2])[*:1]; Cyclobutanecarbonyl(1-CF3) = O=C(C1(C(F)(F)F)CCC1)*; cBuCO(3,3-F2-1-CF3) = O=C(C1(C(F)(F)F)CC(F)(F)C1)*; Pro(trans-4-F) = O=C(O)[C@@H]1C[C@@H](F)CN1; Gly(cPr) = N[C@H](C(=O)O)C1CC1

Tests used:
CyclinB1/CDK1 = target: T1, CyclinB1/CDK1 (Homo sapiens, UniProt P14635); assay: Fluorescence Polarization (FP) competitive binding assay, Cyclin B1/Cdk1; conditions: 10 nM Cyclin B1/Cdk1, 2 nM FAM probe; average of 2-3 independent experiments; read-out: Cyclin B FP IC50;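 also: fluorescence polarization read after equilibration at room temperature, with IC50 taken from serially diluted dose-response curves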
T1 construct: purchased Eurofins, discovery 14-450

OVCAR3 cells = assay: MTT proliferation assay, OVCAR3; format: cell-based; conditions: 5 days compound exposure, 1:3 serial dilution starting at 10 μM;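 also: compound given as an 8- or 10-point series, one day after plating, with exposure covering roughly 3-4 cell doublings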
CyclinA2/CDK2 = target: T2, CyclinA2/CDK2 (Homo sapiens, UniProt P20248); assay: Fluorescence Polarization (FP) competitive binding assay, Cyclin A2/Cdk2; conditions: 8 nM Cyclin A2/Cdk2, 2 nM FAM probe; average of 2-3 independent experiments; read-out: Cyclin A FP IC50;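 also: plates equilibrated two hours at room temperature before polarization reading, IC50 fitted from eight-concentration compound titration curves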
T2 construct: purchased CRELUX Protein Services

NCI-H1048 cells = assay: MTT proliferation assay, NCI-H1048; format: cell-based; conditions: 5 days compound exposure, 1:3 serial dilution starting at 10 μM;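 also: Dose-response in 96-well plates over 8 or 10 concentration points, with exposure spanning 3-4 cell doublings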
CyclinE1/CDK2 = target: T3, CyclinE1/CDK2 (Homo sapiens, UniProt P24864); assay: Fluorescence Polarization (FP) competitive binding assay, Cyclin E1/Cdk2; conditions: 10 nM Cyclin E1/Cdk2, 2 nM FAM probe; average of 2-3 independent experiments; read-out: Cyclin E FP IC50;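 also: readings taken after two-hour equilibration at room temperature in HEPES buffer with NaCl, DTT, NP-40 and BSA, IC50 fitted from eight-concentration serial dilution series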
T3 construct: purchased Eurofins, discovery 14-475

In the case of `CC(C)C[C@@H]1NC(=O)[C@@H](N(C)C(=O)[C@@H](NC(=O)[C@@H]2C[C@@H](F)CN2C(=O)C2(C(F)(F)F)CC(F)(F)C2)C2CC2)CCCCCCCNC(=O)[C@H](Cc2cc(F)cnc2OC2CC2)N(C)C1=O` [Example 127] ({cBuCO(3,3-F2-1-CF3)}-[Pro(trans-4-F)][Gly(cPr)][NMe(hhhLys)]L[NMe3Pal(2-OcPr,5-F)]; lactam 3-C), the IC50 (CyclinB1/CDK1) is reported as 20 nM, the GI50 (OVCAR3 cells) is reported as 30 nM and the IC50 (CyclinA2/CDK2) is reported as 80 nM. For the same molecule, the GI50 (NCI-H1048 cells) was 30 nM and the IC50 (CyclinE1/CDK2) was 230 nM.

Work on `CC(C)C[C@@H]1NC(=O)[C@@H](N(C)C(=O)[C@@H](NC(=O)[C@@H]2C[C@@H](F)CN2C(=O)C2(C(F)(F)F)CC(F)(F)C2)C2CC2)CCCCCCCN(C)C(=O)[C@H](Cc2cc(F)cnc2OC2CC2)N(C)C1=O` [Example 128] ({cBuCO(3,3-F2-1-CF3)}-[Pro(trans-4-F)][Gly(cPr)][NMehhhLys(Me)]L[NMe3Pal(2-OcPr,5-F)]; lactam 3-C) yielded an IC50 (CyclinB1/CDK1) of 20 nM, a GI50 (OVCAR3 cells) of 30 nM and an IC50 (CyclinA2/CDK2) of 80 nM. The GI50 (NCI-H1048 cells) was 30 nM and the IC50 (CyclinE1/CDK2) was 190 nM.

Molecule `CC(C)C[C@@H]1NC(=O)[C@@H](N(C)C(=O)[C@@H](NC(=O)[C@@H]2C[C@@H](F)CN2C(=O)C2(C(F)(F)F)CC(F)(F)C2)C2CC2)CCCCCCCNC(=O)[C@H](Cc2cc(Cl)cnc2OC(C)C)N(C)C1=O` [Example 131] ({cBuCO(3,3-F2-1-CF3)}-[Pro(trans-4-F)][Gly(cPr)][NMe(hhhLys)]L[NMe3Pal(2-OiPr,5-Cl)]; lactam 3-C) has an IC50 (CyclinB1/CDK1) of 20 nM, a GI50 (OVCAR3 cells) of 400 nM and an IC50 (CyclinA2/CDK2) of 30 nM. It also gave a GI50 (NCI-H1048 cells) of 290 nM and an IC50 (CyclinE1/CDK2) of 240 nM.

With `CC(C)C[C@@H]1NC(=O)[C@@H](N(C)C(=O)[C@@H](NC(=O)[C@@H]2C[C@@H](F)CN2C(=O)C2(C(F)(F)F)CCC2)C2CC2)CC=CCCCCNC(=O)[C@H](Cc2cc(F)cnc2OC2CC2)N(C)C1=O` [Example 132] the IC50 (CyclinB1/CDK1) was 20 nM, the GI50 (OVCAR3 cells) was 380 nM and the IC50 (CyclinA2/CDK2) was 710 nM. It also gave a GI50 (NCI-H1048 cells) of 570 nM and an IC50 (CyclinE1/CDK2) of 450 nM.

With `CC(C)C[C@@H]1NC(=O)[C@@H](N(C)C(=O)[C@@H](NC(=O)[C@@H]2C[C@@H](F)CN2C(=O)C2(C(F)(F)F)CCC2)C2CC2)CC=CCCCCN(C)C(=O)[C@H](Cc2cc(F)cnc2OC2CC2)N(C)C1=O` [Example 133] the IC50 (CyclinB1/CDK1) was 20 nM, the GI50 (OVCAR3 cells) was 260 nM and the IC50 (CyclinA2/CDK2) was 470 nM. The GI50 (NCI-H1048 cells) was 340 nM and the IC50 (CyclinE1/CDK2) was 340 nM.

Work on `CC(C)C[C@@H]1NC(=O)[C@@H](N(C)C(=O)[C@@H](NC(=O)[C@@H]2C[C@@H](F)CN2C(=O)C2(C(F)(F)F)CCC2)C2CC2)CCCCCCCNC(=O)[C@H](Cc2cc(F)cnc2OC2CC2)N(C)C1=O` [Example 134] ({Cyclobutanecarbonyl(1-CF3)}-[Pro(trans-4-F)][Gly(cPr)][NMe(hhhLys)]L[NMe3Pal(2-OcPr,5-F)]; lactam 3-C) yielded an IC50 (CyclinB1/CDK1) of 20 nM, a GI50 (OVCAR3 cells) of 40 nM and an IC50 (CyclinA2/CDK2) of 100 nM. It also gave a GI50 (NCI-H1048 cells) of 30 nM and an IC50 (CyclinE1/CDK2) of 120 nM.

In the case of `CC(C)C[C@@H]1NC(=O)[C@@H](N(C)C(=O)[C@@H](NC(=O)[C@@H]2C[C@@H](F)CN2C(=O)C2(C(F)(F)F)CCC2)C2CC2)CCCCCCCN(C)C(=O)[C@H](Cc2cc(F)cnc2OC2CC2)N(C)C1=O` [Example 135] ({Cyclobutanecarbonyl(1-CF3)}-[Pro(trans-4-F)][Gly(cPr)][NMehhhLys(Me)]L[NMe3Pal(2-OcPr,5-F)]; lactam 3-C), the IC50 (CyclinB1/CDK1) is reported as 20 nM, the GI50 (OVCAR3 cells) is reported as 20 nM and the IC50 (CyclinA2/CDK2) is reported as 80 nM. For the same molecule, the GI50 (NCI-H1048 cells) was 30 nM and the IC50 (CyclinE1/CDK2) was 120 nM.

For `CC(C)C[C@@H]1NC(=O)[C@@H](N(C)C(=O)[C@@H](NC(=O)[C@@H]2C[C@@H](F)CN2C(=O)C2(C(F)(F)F)CC(F)(F)C2)C2CC2)CCCCCCCN(C)C(=O)[C@H](Cc2cc(Cl)ccc2C2=CCN(C(=O)C(C)(C)C)CC2)N(C)C1=O` [Example 144] ({cBuCO(3,3-F2-1-CF3)}-[Pro(trans-4-F)][Gly(cPr)][NMehhhLys(Me)]L[X122]; lactam 3-C), the IC50 (CyclinB1/CDK1) was 20 nM, the GI50 (OVCAR3 cells) was 70 nM and the IC50 (CyclinA2/CDK2) was 20 nM. It also gave a GI50 (NCI-H1048 cells) of 70 nM and an IC50 (CyclinE1/CDK2) of 840 nM.
